Results: ChEMBL document CHEMBL2417501, “Synthesis of 4-aminoquinoline-pyrimidine hybrids as potent antimalarials and their mode of action studies” (Eur J Med Chem, 2013)

Assays:
[1] = system: Vesicular stomatitis virus; experiment: Antiviral activity against Vesicular stomatitis virus infected in human HeLa cells assessed as reduction of virus-induced cytopathogenicity; assay type: functional, organism-based
Sindbis virus = experiment: Antiviral activity against Sindbis virus infected in african green monkey Vero cells assessed as reduction of virus-induced cytopathogenicity; assay type: functional, organism-based
Cytomegalovirus [2] = experiment: Antiviral activity against Cytomegalovirus AD-169 infected in human HEL cells assessed as reduction of plaque formation; assay type: functional, organism-based; conditions: Human betaherpesvirus 5, AD-169, HEL
Human alphaherpesvirus 3 [3] = experiment: Antiviral activity against TK-positive Varicella-zoster virus OKA infected in human HEL cells assessed as reduction of plaque formation; assay type: functional, cell-based; conditions: Human alphaherpesvirus 3, strain Oka vaccine
Influenza B virus = experiment: Antiviral activity against influenza B virus infected in dog MDCK cells assessed as reduction of virus-induced cytopathogenicity by MTS assay; assay type: functional, organism-based
Feline coronavirus = experiment: Antiviral activity against Feline coronavirus infected in cat CRFK cells assessed as reduction of virus-induced cytopathogenicity by MTS assay; assay type: functional, organism-based; conditions: Alphacoronavirus 1, CRFK
Punta Toro virus = experiment: Antiviral activity against […] infected in african green monkey Vero cells assessed as reduction of virus-induced cytopathogenicity; assay type: functional, organism-based
[4] = Selectivity index, ratio of CC50 for MDCK cells to IC50 for chloroquine-resistant Plasmodium falciparum Dd2; assay type: functional
Coxsackievirus [5] = experiment: Antiviral activity against Coxsackievirus B4 infected in african green monkey Vero cells assessed as reduction of virus-induced cytopathogenicity; assay type: functional, organism-based
Influenza A virus [6] = experiment: Antiviral activity against influenza A virus […] subtype infected in dog MDCK cells assessed as reduction of virus-induced cytopathogenicity by MTS assay; assay type: functional, organism-based; conditions: read-out: EC50
Human respirovirus 3 = experiment: Antiviral activity against Parainfluenza-3 virus infected in african green monkey Vero cells assessed as reduction of virus-induced cytopathogenicity; assay type: functional, organism-based; conditions: Human respirovirus 3, Vero
Human alphaherpesvirus 2 = experiment: Antiviral activity against Herpes simplex virus-2 G infected in human HEL cells assessed as reduction of virus-induced cytopathogenicity; assay type: functional, organism-based; conditions: Human alphaherpesvirus 2, strain G
Human alphaherpesvirus 1 [7] = experiment: Antiviral activity against Herpes simplex virus-1 KOS infected in human HEL cells assessed as reduction of virus-induced cytopathogenicity; assay type: functional, organism-based; conditions: Human alphaherpesvirus 1, KOS
Cytomegalovirus [8] = experiment: Antiviral activity against Cytomegalovirus Davis infected in human HEL cells assessed as reduction of plaque formation; assay type: functional, organism-based; conditions: Human betaherpesvirus 5, Davis
Coxsackievirus [9] = experiment: Antiviral activity against Coxsackievirus B4 infected in human HeLa cells assessed as reduction of virus-induced cytopathogenicity; assay type: functional, organism-based
[10] = Inhibition of beta-hematin formation at 1 mg/ml; assay type: functional
Felid alphaherpesvirus 1 = experiment: Antiviral activity against feline herpesvirus infected in cat CRFK cells assessed as reduction of virus-induced cytopathogenicity by MTS assay; assay type: functional, organism-based; conditions: Felid alphaherpesvirus 1, CRFK
[11] = system: Vesicular stomatitis virus; experiment: Antiviral activity against Vesicular stomatitis virus infected in human HEL cells assessed as reduction of virus-induced cytopathogenicity; assay type: functional, organism-based
[12] = Cytotoxicity against human HeLa cells; assay type: cell-based
[13] = system: Mammalian orthoreovirus 1; experiment: Antiviral activity against Reovirus-1 infected in african green monkey Vero cells assessed as reduction of virus-induced cytopathogenicity; assay type: functional, organism-based; conditions: Mammalian orthoreovirus 1, Vero
[14] = Cytotoxicity against african green monkey Vero cells; assay type: cell-based; conditions: chlorocebus sabaeus
Influenza A virus [15] = experiment: Antiviral activity against influenza A virus H1N1 subtype infected in dog MDCK cells assessed as reduction of virus-induced cytopathogenicity by MTS assay; assay type: functional, organism-based
Human alphaherpesvirus 3 [16] = experiment: Antiviral activity against […] Varicella-zoster virus 07-1 infected in human HEL cells assessed as reduction of plaque formation; assay type: functional, organism-based; conditions: Human alphaherpesvirus 3, 07-1, HEL
[17] = Cytotoxicity against cat CRFK cells; assay type: cell-based, Felis catus
[18] = system: Respiratory syncytial virus; experiment: Antiviral activity against Respiratory syncytial virus infected in human HeLa cells assessed as reduction of virus-induced cytopathogenicity; assay type: functional, organism-based
Plasmodium falciparum [19] = experiment: Antimalarial activity against chloroquine-sensitive Plasmodium falciparum D10 by two-fold dilution technique; assay type: functional, organism-based
MDCK = experiment: (§1) Cytotoxicity against MDCK cells assessed as cell viability after 4 days by MTS assay; assay type: cell-based, Canis lupus familiaris; conditions: dog, mdck, 96 h
[20] = as §1; assay type: cell-based, Canis lupus familiaris; conditions: dog, MDCK cells
Plasmodium falciparum [21] = experiment: Antimalarial activity against chloroquine-resistant Plasmodium falciparum Dd2; assay type: functional, organism-based
Human alphaherpesvirus 1 [22] = experiment: Antiviral activity against TK-negative Herpes simplex virus 1 KOS infected in human HEL cells assessed as reduction of virus-induced cytopathogenicity; assay type: functional, organism-based; conditions: Human alphaherpesvirus 1, KOS
[23] = Cytotoxicity against human HEL cells; assay type: cell-based
DNA [24] = experiment: Binding affinity to calf thymus DNA assessed as change in melting temperature at 30 uM by UV-visible spectrophotometry; assay type: nucleic-acid assay; conditions: Bos taurus
DNA [25] = experiment: Binding affinity to calf thymus DNA assessed as compound DNA intercalation measured as hypochromatic shift at 330 nm at 30 uM by UV-visible spectrophotometry; assay type: nucleic-acid assay; conditions: Bos taurus
Heme [26] = experiment: Binding affinity to monomeric heme (unknown origin) in HEPES buffer at pH 7.4 at 1 to 25 uM by UV-visible spectrophotometry
Heme [27] = experiment: Binding affinity to monomeric heme (unknown origin) in MES buffer at pH 5.6 at 1 to 25 uM by UV-visible spectrophotometry
mu-oxodimeric heme = experiment: Binding affinity to mu-oxodimericheme (unknown origin) in phosphate buffer at pH 5.8 at 1 to 25 uM by UV-visible spectrophotometry
Escherichia coli = experiment: Binding affinity to Escherichia coli pUC18 DNA at 30 uM by fluorescence assay
DNA [28] = experiment: Binding affinity to calf thymus DNA at 30 uM by fluorescence assay; assay type: nucleic-acid assay; conditions: Bos taurus
DNA [29] = experiment: Binding affinity to calf thymus DNA assessed as compound DNA intercalation measured as hypochromatic shift at 255 nm at 30 uM by UV-visible spectrophotometry; assay type: nucleic-acid assay; conditions: Bos taurus

| SMILES | EC50 [1] | EC50 (Sindbis virus) | EC50 (Cytomegalovirus [2]) | EC50 (Human alphaherpesvirus 3 [3]) | EC50 (Influenza B virus) | EC50 (Feline coronavirus) | EC50 (Punta Toro virus) | EC50 (Coxsackievirus [5]) | EC50 (Influenza A virus [6]) | EC50 (Human respirovirus 3) | EC50 (Human alphaherpesvirus 2) | EC50 (Human alphaherpesvirus 1 [7]) | EC50 (Cytomegalovirus [8]) | EC50 (Coxsackievirus [9]) | inhibition [10] | EC50 (Felid alphaherpesvirus 1) | EC50 [11] | MCC [12] | EC50 [13] | MCC [14] | further results |
| --- | --- | --- | --- | --- | --- | --- | --- | --- | --- | --- | --- | --- | --- | --- | --- | --- | --- | --- | --- | --- | --- |
| COC(=O)c1c(C)nc(NCCCNc2ccnc3cc(Cl)ccc23)nc1-c1ccccc1 | > 20 µM | > 4 µM | 10.9 µM | > 4 µM | > 0.16 µM | 1.1 µM | > 4 µM | > 4 µM | > 0.16 µM | > 4 µM | > 20 µM | > 20 µM | 15.3 µM | > 20 µM | 46% | > 20 µM | > 20 µM | 100 µM | > 4 µM | 20 µM | Ratio CC50/IC50 [4]: 3.13; EC50 (Influenza A virus [15]): > 0.16 µM; EC50 (Human alphaherpesvirus 3 [16]): > 4 µM; CC50 ([17]; crfk): 25.1 µM; EC50 [18]: > 20 µM; IC50 (Plasmodium falciparum [19]): 0.659 µM; CC50 (MDCK): 1.7 µM; MCC at 96 h [20]: 0.8 µM; IC50 (Plasmodium falciparum [21]): 0.542 µM; EC50 (Human alphaherpesvirus 1 [22]): > 20 µM; MCC [23]: ≥ 20 µM |
| CCOC(=O)c1cnc(NCCCCNc2ccnc3cc(Cl)ccc23)nc1C | > 20 µM | > 20 µM | > 20 µM | > 20 µM | > 4 µM | > 100 µM | > 20 µM | > 20 µM | > 4 µM | > 20 µM | > 100 µM | > 100 µM | > 20 µM | > 20 µM | 58% | > 100 µM | > 100 µM | 100 µM | > 20 µM | 100 µM | Ratio CC50/IC50 [4]: 30.65; EC50 (Influenza A virus [15]): > 4 µM; EC50 (Human alphaherpesvirus 3 [16]): > 20 µM; CC50 ([17]; CRFK cells): > 100 µM; EC50 [18]: > 20 µM; IC50 (Plasmodium falciparum [19]): 0.211 µM; CC50 at 96 h [20]: 10.3 µM; MCC at 96 h [20]: ≥ 4 µM; IC50 (Plasmodium falciparum [21]): 0.336 µM; EC50 (Human alphaherpesvirus 1 [22]): > 100 µM; MCC [23]: ≥ 100 µM |
| CCOC(=O)c1c(C)nc(NCCCCNc2ccnc3cc(Cl)ccc23)nc1-c1ccc(F)cc1 | > 100 µM | > 4 µM | > 4 µM | > 4 µM | > 4 µM | > 100 µM | > 4 µM | > 4 µM | > 4 µM | > 4 µM | > 100 µM | > 100 µM | > 4 µM | > 100 µM | 59% | > 100 µM | > 100 µM | > 100 µM | > 4 µM | 20 µM | EC50 (Influenza A virus [15]): > 4 µM; EC50 (Human alphaherpesvirus 3 [16]): > 4 µM; CC50 ([17]; crfk): > 100 µM; EC50 [18]: > 100 µM; IC50 (Plasmodium falciparum [19]): 2.76 µM; CC50 (MDCK): 11.4 µM; MCC at 96 h [20]: 20 µM; EC50 (Human alphaherpesvirus 1 [22]): > 100 µM; MCC [23]: ≥ 20 µM |
| CCOC(=O)c1c(C)nc(OCCCNc2ccnc3cc(Cl)ccc23)nc1-c1ccccc1 | > 100 µM | > 20 µM | 2 µM | > 4 µM | > 4 µM | > 100 µM | > 20 µM | > 20 µM | > 4 µM | > 20 µM | > 100 µM | > 100 µM | 2.53 µM | > 100 µM | 87% | > 100 µM | > 100 µM | > 100 µM | > 20 µM | 100 µM | Ratio CC50/IC50 [4]: 43.6; EC50 (Influenza A virus [15]): > 4 µM; EC50 (Human alphaherpesvirus 3 [16]): > 4 µM; CC50 ([17]; crfk): > 100 µM; EC50 [18]: > 100 µM; CC50 (MDCK): 21.1 µM; MCC at 96 h [20]: 20 µM; IC50 (Plasmodium falciparum [21]): 0.483 µM; EC50 (Human alphaherpesvirus 1 [22]): > 100 µM; MCC [23]: > 4 µM |
| CCN(CC)CCCC(C)Nc1ccnc2cc(Cl)ccc12 (stereo unspecified) | – | – | – | – | – | – | – | – | – | – | – | – | – | – | 98% | – | – | – | – | – | ΔTm (DNA [24]): 9 °C |
| Cc1nc(NCCCCNc2ccnc3cc(Cl)ccc23)nc(-c2ccccc2)c1C(=O)OC(C)C | > 100 µM | > 4 µM | > 4 µM | 4 µM | > 0.16 µM | > 20 µM | > 4 µM | > 4 µM | > 0.16 µM | > 4 µM | > 4 µM | > 4 µM | > 4 µM | > 100 µM | 72% | > 20 µM | > 4 µM | > 100 µM | > 4 µM | 20 µM | Activity (DNA [25]): 37%; Ratio CC50/IC50 [4]: 3.92; log K (Heme [26]): 4.96; log K (Heme [27]): 4.58; log K (mu-oxodimeric heme): 5.72; ΔTm (DNA [24]): 7.5 °C; log K (Escherichia coli): 5.73; EC50 (Influenza A virus [15]): > 0.16 µM; EC50 (Human alphaherpesvirus 3 [16]): > 4 µM; log K (DNA [28]): 5.76; CC50 ([17]; crfk): 50.6 µM; EC50 [18]: > 100 µM; CC50 (MDCK): 0.6 µM; MCC at 96 h [20]: 0.8 µM; Activity (DNA [29]): 112%; IC50 (Plasmodium falciparum [21]): 0.153 µM; EC50 (Human alphaherpesvirus 1 [22]): > 4 µM; MCC [23]: 20 µM |
